Test results from patent publication US7351732B2, “Cycloalkanedione derivatives, method for the production thereof and their pharmacological applications” (Schwarz Pharma S.L., priority 2002, dated 2008).
Structures can show the parent of a compound that is named as a salt. Where two headings read alike, the source gives them in different places.

Key:
5-HT2A receptors = target: T1, 5-HT2A receptors (Rattus norvegicus, UniProt P14842); assay: Radioligand displacement, 5-HT2A receptors, [3H]ketanserin; format: binding; conditions: rat cerebral cortex, read-out: Ki ± E.E. 5-HT2A
T1 construct: (b) 5-HT2A receptors, [^3H]ketanserin, rat cerebral cortex; from tissue; host or cells: rat cerebral cortex
T1 sequence (P14842 whole entry): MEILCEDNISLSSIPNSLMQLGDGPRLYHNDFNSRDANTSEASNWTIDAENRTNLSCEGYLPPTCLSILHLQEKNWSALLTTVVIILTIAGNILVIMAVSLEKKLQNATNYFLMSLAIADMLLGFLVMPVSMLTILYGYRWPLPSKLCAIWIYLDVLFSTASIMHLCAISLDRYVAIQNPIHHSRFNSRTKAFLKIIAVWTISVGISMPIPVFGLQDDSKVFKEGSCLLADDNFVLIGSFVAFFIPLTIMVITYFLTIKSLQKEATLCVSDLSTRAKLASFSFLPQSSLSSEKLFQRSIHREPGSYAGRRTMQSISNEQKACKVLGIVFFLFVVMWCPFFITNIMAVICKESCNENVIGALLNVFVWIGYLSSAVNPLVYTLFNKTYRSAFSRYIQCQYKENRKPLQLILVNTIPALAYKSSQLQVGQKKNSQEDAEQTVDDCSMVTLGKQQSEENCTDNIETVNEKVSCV

5-HT3 receptors = target: T2, 5-HT3 receptors (Rattus norvegicus, UniProt P35563); assay: Radioligand displacement, 5-HT3 receptors, [3H]LY 278584; format: binding; conditions: [3H]LY 278584, rat cerebral cortex; read-out: Ki ± E.E. 5-HT3
T2 construct: (c) 5-HT3 receptors, [^3H]LY 278584, rat cerebral cortex; from tissue; host or cells: rat cerebral cortex
T2 sequence (P35563 24-483): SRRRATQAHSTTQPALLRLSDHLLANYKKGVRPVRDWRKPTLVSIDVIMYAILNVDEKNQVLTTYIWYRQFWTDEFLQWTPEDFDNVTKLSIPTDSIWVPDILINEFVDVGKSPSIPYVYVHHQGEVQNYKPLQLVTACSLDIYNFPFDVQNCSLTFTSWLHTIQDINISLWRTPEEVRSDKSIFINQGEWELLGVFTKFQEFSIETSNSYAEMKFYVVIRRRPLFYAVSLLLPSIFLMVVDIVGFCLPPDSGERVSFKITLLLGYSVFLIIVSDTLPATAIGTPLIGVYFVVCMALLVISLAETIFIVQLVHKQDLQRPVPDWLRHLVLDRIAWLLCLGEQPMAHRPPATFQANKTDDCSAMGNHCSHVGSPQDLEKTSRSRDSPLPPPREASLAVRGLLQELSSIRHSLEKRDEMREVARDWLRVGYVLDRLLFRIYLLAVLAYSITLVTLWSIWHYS

5-HT4 receptors = target: T3, 5-HT4 receptors (Rattus norvegicus, UniProt Q62758); assay: Radioligand displacement, 5-HT4 receptors, [3H]GR 113808; format: binding; conditions: [3H]GR 113808, rat striatum; read-out: Ki ± E.E. 5-HT4
T3 construct: (d) 5-HT4 receptors, [^3H]GR 113808, rat striatum; from tissue; host or cells: rat striatum
T3 sequence (Q62758 whole entry): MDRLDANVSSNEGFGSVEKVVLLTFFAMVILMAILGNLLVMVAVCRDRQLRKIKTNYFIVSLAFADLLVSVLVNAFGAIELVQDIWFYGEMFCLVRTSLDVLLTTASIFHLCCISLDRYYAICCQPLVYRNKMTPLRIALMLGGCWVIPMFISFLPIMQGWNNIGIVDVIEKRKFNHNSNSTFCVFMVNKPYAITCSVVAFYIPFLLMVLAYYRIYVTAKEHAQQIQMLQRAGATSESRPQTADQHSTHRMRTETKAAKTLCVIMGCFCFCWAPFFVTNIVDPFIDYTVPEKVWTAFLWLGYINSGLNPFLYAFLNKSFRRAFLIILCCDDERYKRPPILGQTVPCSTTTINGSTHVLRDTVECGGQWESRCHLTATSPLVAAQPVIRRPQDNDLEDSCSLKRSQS

5-HT7 receptors = target: T4, 5-HT7 receptors (Rattus norvegicus, UniProt P32305); assay: Radioligand displacement, 5-HT7 receptors, [3H]-5-CT; format: binding; conditions: read-out: Ki ± E.E. 5-HT7
T4 construct: (e) 5-HT7 receptors, [^3H]-5-CT, rat hypothalamus; from tissue; host or cells: rat hypothalamus
T4 sequence (P32305 whole entry): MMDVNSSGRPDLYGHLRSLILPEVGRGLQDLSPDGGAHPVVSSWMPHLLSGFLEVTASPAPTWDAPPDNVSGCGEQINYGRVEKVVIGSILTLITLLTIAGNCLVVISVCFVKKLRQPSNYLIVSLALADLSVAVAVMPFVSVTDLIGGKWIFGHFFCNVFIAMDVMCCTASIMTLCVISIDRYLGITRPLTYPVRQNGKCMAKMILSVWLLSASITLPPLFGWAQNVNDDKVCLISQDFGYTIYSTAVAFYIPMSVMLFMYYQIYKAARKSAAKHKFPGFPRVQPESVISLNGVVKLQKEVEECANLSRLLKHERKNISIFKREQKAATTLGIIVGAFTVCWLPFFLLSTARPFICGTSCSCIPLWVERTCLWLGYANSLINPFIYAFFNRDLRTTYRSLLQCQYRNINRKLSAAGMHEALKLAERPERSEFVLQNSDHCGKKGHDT

α1 receptors = assay: Radioligand displacement, α1 receptors, [3H]prazosin; format: binding; conditions: rat cerebral cortex, read-out: Ki ± E.E. α1
D2 receptors = target: T5, D2 receptors (Rattus norvegicus, UniProt P61169); assay: Radioligand displacement, D2 receptors, [3H]spiperone; format: binding; conditions: rat striatum, read-out: Ki ± E.E. D2
T5 construct: (g) D2 receptors, [^3H]spiperone, rat striatum; from tissue; host or cells: rat striatum
T5 sequence (P61169 whole entry): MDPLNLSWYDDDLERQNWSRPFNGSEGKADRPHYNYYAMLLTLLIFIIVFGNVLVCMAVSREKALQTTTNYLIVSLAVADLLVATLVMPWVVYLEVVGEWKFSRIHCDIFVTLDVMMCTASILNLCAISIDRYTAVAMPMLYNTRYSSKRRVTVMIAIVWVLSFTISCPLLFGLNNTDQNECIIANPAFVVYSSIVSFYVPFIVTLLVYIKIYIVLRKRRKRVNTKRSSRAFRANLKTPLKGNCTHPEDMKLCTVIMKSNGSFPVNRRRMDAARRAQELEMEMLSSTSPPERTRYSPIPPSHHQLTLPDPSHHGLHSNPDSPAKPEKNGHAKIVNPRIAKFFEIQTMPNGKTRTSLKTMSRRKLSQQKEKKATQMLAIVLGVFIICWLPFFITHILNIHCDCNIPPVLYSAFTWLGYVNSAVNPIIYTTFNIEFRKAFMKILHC

5-HT1A [1] = target: T6, 5-HT1A (Rattus norvegicus, UniProt P19327); assay: Radioligand displacement, 5-HT1A receptors, [3H]-8-OH-DPAT; format: binding; parameters: (a) 5-HT1A receptors, [^3H]-8-OH-DPAT, rat cerebral cortex; from tissue; host or cells: rat cerebral cortex; conditions: rat cerebral cortex, read-out: Ki ± E.E. 5-HT1A
T6 sequence (P19327 1-422): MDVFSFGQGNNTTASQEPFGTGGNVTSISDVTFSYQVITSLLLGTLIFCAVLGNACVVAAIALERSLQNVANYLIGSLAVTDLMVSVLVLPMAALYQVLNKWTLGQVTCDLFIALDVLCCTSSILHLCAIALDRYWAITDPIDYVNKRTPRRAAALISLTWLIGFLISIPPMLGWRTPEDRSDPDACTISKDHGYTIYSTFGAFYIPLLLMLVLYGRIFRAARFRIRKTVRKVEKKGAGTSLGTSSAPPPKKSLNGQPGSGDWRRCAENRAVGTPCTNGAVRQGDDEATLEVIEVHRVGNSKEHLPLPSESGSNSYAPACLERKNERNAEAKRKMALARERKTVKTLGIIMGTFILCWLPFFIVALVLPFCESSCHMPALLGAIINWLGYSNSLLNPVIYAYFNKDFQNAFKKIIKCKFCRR

5-human HT1A receptor = target: T7, 5-human HT1A receptor (Homo sapiens, UniProt P08908); assay: Test on adenylate cyclase in He-La cells (inhibition of forskolin stimulation); format: cell-based; conditions: for EC50: inhibition of forskolin-stimulated adenylate cyclase, He-La cells transfected with 5-HT1A, read-out: CE50 (the source's name); for % Maximum inhibition: inhibition of the activation induced by forskolin
T7 construct: expressed in transfected cells; host or cells: HeLa cells
T7 sequence (P08908 1-422): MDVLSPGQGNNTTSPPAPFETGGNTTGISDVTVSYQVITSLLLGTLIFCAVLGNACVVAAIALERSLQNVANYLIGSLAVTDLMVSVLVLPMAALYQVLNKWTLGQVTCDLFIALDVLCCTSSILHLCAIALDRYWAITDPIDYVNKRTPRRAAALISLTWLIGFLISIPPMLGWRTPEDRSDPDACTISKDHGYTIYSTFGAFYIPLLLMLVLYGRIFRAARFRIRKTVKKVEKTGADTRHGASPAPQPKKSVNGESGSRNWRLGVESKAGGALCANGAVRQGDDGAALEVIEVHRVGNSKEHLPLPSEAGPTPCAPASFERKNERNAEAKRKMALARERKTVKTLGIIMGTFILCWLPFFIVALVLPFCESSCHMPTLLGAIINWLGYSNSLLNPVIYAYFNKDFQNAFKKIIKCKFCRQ
Text: The functional character of the new compounds was initially determined by studying their effect on adenylate cyclase in He—La cells transfected with the […], measuring their inhibiting effect on the stimulation of the enzyme induced by forskolin (Table 3 below).

5-HT1A [2] = target: T6, 5-HT1A; assay: [35S]-GTPγS fixation test to coronal sections of rat brain; format: biochemical; parameters: fixation test of [^35S]-GTPγS to coronal sections of rat brain; from tissue; host or cells: coronal sections of rat brain; conditions: 10 μM
Protocol: The in vitro agonist character of the new compounds was also evaluated in some cases by the fixation test of [^35S]-GTPγS to coronal sections of rat brain.

SMILES | Ki (5-HT2A receptors) [nM] | Ki (5-HT3 receptors) [nM] | Ki (5-HT4 receptors) [nM] | Ki (5-HT7 receptors; [3H]-5-CT, rat hypothalamus) [nM] | Ki (α1 receptors) [nM] | Ki (D2 receptors) [nM] | Ki (5-HT1A [1]) [nM] | EC50 (5-human HT1A receptor) [nM] | % Maximum inhibition (5-human HT1A receptor) [%] | [35S]-GTPγS fixation compared with 8-OH-DPAT (5-HT1A [2]) | Ki (5-HT7 receptors) [nM] | melting point [°C]
COc1ccccc1CCCCNCCCCN1C(=O)C2CCCN2C1=O (stereo not shown) [Compound 20, 2-[4-[4-(o-Methoxyphenyl)butylamine]butyl]-1,3-dioxoperhydropyrrolo[1,2-c]imidazol] | > 10000 | > 1000 | > 10000 | > 10000 | > 1000 | > 10000 | 138 ± 26.3 | – | – | – | – | –
COc1ccccc1CCCNCCCN1C(=O)C2CCCN2C1=O (stereo not shown) [Compound 21, 2-[3-[3-(o-Methoxyphenyl)propylamine]propyl]-1,3-dioxoperhydropyrrolo[1,2-c]imidazol] | > 10000 | > 10000 | > 1000 | > 10000 | > 1000 | > 10000 | > 1000 | – | – | – | – | –
O=C1C2CCCN2C(=O)N1CCCCNCc1nc2ccccc2[nH]1 (stereo not shown) [Compound 16, 2-[4-[(Benzimidazol-2-yl)methylamine]butyl]-1,3-dioxoperhydropyrrolo[1,2-c]imidazol] | > 10000 | > 1000 | > 10000 | > 10000 | > 1000 | > 10000 | > 10000 | – | – | – | – | –
COc1ccccc1CCCNCCCCN1C(=O)C2CCCN2C1=O (stereo not shown) [Compound 19, 2-[4-[3-(o-Methoxyphenyl)propylamine]butyl]-1,3-dioxoperhydropyrrolo[1,2-c]imidazol] | > 1000 | > 10000 | > 10000 | > 10000 | > 1000 | > 10000 | 73.9 ± 5 | – | – | – | – | –
O=C1C2CCCN2C(=O)N1CCCCNCCc1cccc2ccccc12 (stereo not shown) [Compound 9, 2-[4-[2-(Naphth-1-yl)ethylamine]butyl]-1,3-dioxoperhydropyrrolo[1,2-c]imidazol] | > 10000 | – | > 10000 | – | > 1000 | > 10000 | 27.9 ± 3.1 | – | – | – | – | –
O=C1C2CCCN2C(=O)N1CCCCNCCc1ccc2ccccc2c1 (stereo not shown) [Compound 11, 2-[4-[2-(Naphth-2-yl)ethylamine]butyl]-1,3-dioxoperhydropyrrolo[1,2-c]imidazol] | 157.3 ± 0.65 | > 10000 | 594 ± 43.7 | 74 ± 7.3 | 99 ± 14 | – | 43.2 ± 4.5 | – | – | – | – | –
O=C1C2CSCN2C(=O)N1CCCCNCC1CCc2ccccc2O1 (racemic) [Compound 3, (±)-2-[4-[(Chroman-2-yl)methylamine]butyl]-1,3-dioxoperhydroimidazo[1,5-c]-thiazol] | – | – | – | – | – | – | 13.2 ± 1 | 31.5 | 89.3 | especially similar to those obtained with the 5-HT1A, 8-OH-DPAT agonist prototype | – | –
CCCN(CCC)C1CCc2cccc(O)c2C1 (stereo not shown) [Compound 8-OH-DPAT, 8-OH-DPAT, reference compound] | – | – | – | – | – | – | – | – | – | – | 83.8 | –
COc1ccccc1CCNCCCCN1C(=O)C2CCCN2C1=O (stereo not shown) [Compound 18, 2-[4-[2-(o-Methoxyphenyl)ethylamine]butyl]-1,3-dioxoperhydropyrrolo[1,2-c]imidazol] | > 10000 | – | > 10000 | – | > 1000 | > 10000 | 868 ± 23.1 | – | – | – | – | –
O=C1CSC(=O)N1CCCCNCC1CCc2ccccc2O1 (racemic) [Compound 4, (±)-3-[4-[(Chroman-2-yl)methylamine]butyl]-2,4-dioxothiazolidin] | – | – | – | – | – | – | 30.1 ± 0.6 | 11.6 | 89.6 | – | – | –
O=C1C2CCCN2C(=O)N1CCCCNCCOc1cccc2ccccc12 (stereo not shown) [Compound 14, 2-[4-[2-(Naphth-1-oxi)ethylamine]butyl]-1,3-dioxoperhydropyrrolo[1,2-c]imidazol] | 41.5 ± 7.5 | > 1000 | > 10000 | 42.6 ± 4.4 | 30.9 ± 4.9 | > 1000 | 2.4 ± 0.6 | – | – | – | – | –
O=C1CSC(=O)N1CCCCNCCc1cccc2ccccc12 [Compound 10, 3-[4-[2-(Naphth-1-yl)ethylamine]butyl]-2,4-dioxothiazolidin] | > 1000 | > 1000 | > 1000 | > 10000 | > 1000 | > 10000 | 15 ± 1 | – | – | – | – | –
O=C1CSC(=O)N1CCCCNCCOc1ccccc1 [Compound 13, 3-[4-[2-(Phenoxy)ethylamine]butyl]-2,4-dioxothiazolidin] | > 10000 | > 10000 | > 1000 | 55 ± 0.3 | 26.9 ± 4.5 | > 10000 | 9.8 ± 0.7 | – | – | – | – | –
NCCc1c[nH]c2ccc(C(N)=O)cc12 [Compound 5-CT, 5-CT, reference compound] | – | – | – | 1.8 ± 0.6 | – | – | – | – | – | – | – | –
O=C1CSC(=O)N1CCCCCCNCC1CCc2ccccc2O1 (racemic) (as salt: hydrochloride) [Compound 6, (±)-3-[6-[(Chroman-2-yl)methylamine]hexyl]-2,4-dioxothiazolidin] | – | – | – | – | – | – | – | – | – | – | – | 175 to 177
O=C1C2CCCN2C(=O)N1CCCCNCc1cccc2ccccc12 (stereo not shown) [Compound 7, 2-[4-[(Naphth-1-yl)methylamine]butyl]-1,3-dioxoperhydropyrrolo[1,2-c]imidazol] | > 1000 | – | > 10000 | > 10000 | 49.6 ± 2.9 | > 10000 | – | – | – | – | – | –
O=C1CSC(=O)N1CCCCNCCOc1cccc2ccccc12 (as salt: hydrochloride) [Compound 15, 3-[4-[2-(Naphth-1-oxi)ethylamine]butyl]-2,4-dioxothiazolidin] | – | – | – | – | – | – | – | – | – | – | – | 149 to 151
O=C1CSC(=O)N1CCCCNCCOc1cccc2ccccc12 [Compound 15, 3-[4-[2-(Naphth-1-oxi)ethylamine]butyl]-2,4-dioxothiazolidin] | 38.5 ± 7.7 | > 10000 | – | 19.9 ± 0.8 | 54.7 ± 1.8 | > 1000 | 4.5 ± 0.2 | – | – | – | – | –
O=C1C2CCCN2C(=O)N1CCCCNCCc1ccc2ccccc2c1 (stereo not shown) (as salt: hydrochloride) [Compound 11, 2-[4-[2-(Naphth-2-yl)ethylamine]butyl]-1,3-dioxoperhydropyrrolo[1,2-c]imidazol] | – | – | – | – | – | – | – | – | – | – | – | 130 to 132
